Patent US10487291B2, “Detergent or cleaning agent having GLDA-enhanced antimicrobial effect” (Henkel AG & Co. KGaA, priority 2016, dated 2019)

System: Pseudomonas aeruginosa
Experiment: Test for determining the reduction of Pseudomonas aeruginosa according to EN 1276
Type: cell-based
Settings: for reduction of Pseudomonas aeruginosa (antibacterial effect): EN 1276
Experimental: The washing agent was used in a test for determining the reduction of Pseudomonas aeruginosa according to EN 1276. The obtained value served as a reference. 0.10 wt. % GLDA or 0.50 wt. % were then added to the washing agent and likewise used in the test for determining the reduction of Pseudomonas aeruginosa according to EN 1276. The all-purpose cleaner was used in a test for determining the reduction of Pseudomonas aeruginosa according to EN 1276. The obtained value served as a reference. 0.10 wt. % GLDA or 0.50 wt. % were then added to the all-purpose cleaner and likewise used in the test for determining the reduction of Pseudomonas aeruginosa according to EN 1276.

SMILES: O=C(O)CC[C@@H](C(=O)O)N(CC(=O)O)CC(=O)O [Glutamic acid diacetic acid (GLDA), glutamic acid-N,N-diacetic acid]
- reduction of Pseudomonas aeruginosa (antibacterial effect) (Table 1, Example 1, concentration glutamic acid diacetic acid 0.10% (according to the invention)): 7.65E+00
- reduction of Pseudomonas aeruginosa (antibacterial effect) (Table 1, Example 1, concentration glutamic acid diacetic acid 0.50% (according to the invention)): 6.90E+01
- reduction of Pseudomonas aeruginosa (antibacterial effect) (Table 2, Example 2, concentration glutamic acid diacetic acid 0.10% (according to the invention)): 7.65E+00
- reduction of Pseudomonas aeruginosa (antibacterial effect) (Table 2, Example 2, concentration glutamic acid diacetic acid 0.50% (according to the invention)): 6.90E+01
- antimicrobial / antibacterial effect (in words) (substance on its own (GLDA itself; agent exclusively comprising QAC)): does not have an antimicrobial effect
